Measured values reported in US11260053B2, “Bile acid recycling inhibitors and satiogens for treatment of diabetes, obesity, and inflammatory gastrointestinal conditions” (Satiogen Pharmaceuticals, Inc., priority 2010, dated 2022).
Read-outs that look alike come from different tables or passages of the source.

Tests used:
male db/db mice [1] = test: In vivo assay for reduction in blood glucose levels (Example 7A); conditions: for reduction in plasma glucose from baseline: after 6 hours, oral
Protocol: Male db/db mice 6-7 weeks (approx 30 g) were fasted for 2 h. A combination of (−)-(3R,5R)-trans-3-butyl-3-ethyl-2,3,4,5-tetrahydro-7,8-dimethoxy-5-phenyl-1,4-benzothiazepine1,1-dioxide (Compound 100A) at doses of 0, 0.1, 1, 10, mg/kg in 10% of DMSO-water and 30 mg/kg sitagliptin (DPP-IV inhibitor) in a mixture of valine-pyrrolidine in water was administered orally to male db/db mice (n=7-10 per group). Blood sample (˜1 μl from tail for glucose level testing) was taken at t=−24 h, 0, 60, 180, 240, 300, 360 min and 24 h after administration.

diabetic db/db mice = test: Oral ASBTI with DPP-IV inhibitor versus subcutaneous exenatide, blood glucose (Example 9); type: in vivo
GLP-1 = test: Plasma GLP-1 levels in normal rats after oral dosing (Example 8); type: in vivo
Protocol: 12-week-old male HSD rats were fasted for 16 h and given oral dose of 0, 3, 30, 100 mg/kg of the ASBTI 1-[4-[4-[(4R,5R)-3,3-dibutyl-7-(dimethylamino)-2,3,4,5-tetrahydro-4-hydroxy-1,1-dioxido-1-benzothiepin-5-yl]phenoxy]butyl]4-aza-1-azoniabicyclo[2.2.2]octane methane sulfonate (Synthesized by Nanosyn Inc., CA, USA) or metformin (Control, 0, 3, 30, 100, 300 mg/kg) in saline and a dose of 30 mg/kg sitaglipin in a mixture of valine-pyrrolidine in water (n=5 per group). Blood samples in volume of 0.6 ml for each time point were taken from the caudal vein with a heparinized capillary tube 0, 1, 3 and 5 h after the administration of compounds and plasma GLP-1 level were determined. Aprotinin and 10 μl of DPP-IV inhibitor per ml of blood were used for blood sample preservation during 10 min centrifugation and for storage at −70° C. or below. GLP-1 (Active pM) was tested by Millipore ELISA Kits (Millipore Corporation, 290 Concord Road, Billerica, Mass.).

male db/db mice [2] = test: In vivo assay for reduction in blood glucose levels (Example 7B); conditions: for reduction in plasma glucose from baseline: after 6 hours, oral, male db/db mice
Protocol: Male db/db mice 8-9 weeks (approx 40 g) were fasted for 2 h. […] Blood sample (˜1 μl from tail for glucose level testing) was taken at t=−24 h, 0, 1, 3, 4, 5, 6 h and 24 h after administration.

Sprague Dawley rats [3] = conditions: 500 mM sodium taurocholate gel, 3 mL per rectum, overnight-fasted rats, 6 hour period
Protocol: Using a stainless steel dissolving vessel fitted with a propeller stirrer 1 gram of methyl cellulose is dissolved in 100 mL of purified water and stirred for 15 minutes. 5 syringes connected to gavage tubes are then each filled with 3 mL of the composition.
The sodium taurocholate rectal gel described above was rectally administered to 6 conscious overnight-fasted subjects (e.g., Sprague Dawley rats) and the control rectal gel without the sodium taurocholate was rectally administered to 5 conscious overnight-fasted subjects (e.g., Sprague Dawley rats). Each rat was then exposed to pre-weighed food and the cumulative consumption of the food was determined over a 6 hour period by weighing the food after 30 minutes, 60 minutes, 120 minutes, 240 minutes and 360 minutes.

obese diabetic humans = conditions: rectal 0.66, 2.0, 6.66, 20.0 mmoles in 20 ml 1% carboxymethyl cellulose gel, after 100 mg sitagliptin
Protocol: Studies were undertaken after an overnight fast following administration (8-10 hours prior to bile salt) of 100 mg sitagliptin, a DPP-4 inhibitor that protects GLP-1 from inactivation by proteolysis. […] The taurocholic acid was administered into the rectum by syringe in a total volume of 20 ml of 1% carboxymethyl cellulose gel. Each dose was administered on a different day with at least three days between doses.

Sprague Dawley rats [4] = test system: Sprague Dawley rats
Protocol: Using a stainless steel dissolving vessel fitted with a propeller stirrer 1 gram of methyl cellulose is dissolved in 100 mL of purified water and stirred for 15 minutes. 12 syringes connected to gavage tubes are then each filled with 3 mL of the composition.
A 4×4 Latin Square design is used to monitor the effect of the different concentration of taurocholate on the food uptake of overnight-fasted Sprague Dawley rats. Each concentration is tested in triplicate with four rats used per replicate.
The ED50 for inhibition of food intake is obtained by plotting the normalizing the dose response for the anorectic effect of taurocholate to the control data as a log of taurocholate dose vs the percentage of control cumulative intake (FIG. 7).

SMILES: CCCC[C@]1(CC)CS(=O)(=O)c2cc(OC)c(OC)cc2[C@@H](c2ccccc2)N1 (relative stereo) [Compound 100A, (−)-(3R,5R)-trans-3-butyl-3-ethyl-2,3,4,5-tetrahydro-7,8-dimethoxy-5-phenyl-1,4-benzothiazepine1,1-dioxide]
- change in body weight (male db/db mice [1]; 24 h after administration, FIG. 9): Weight loss
- plasma glucose concentrations (male db/db mice [1]; ASBTI alone, male db/db mice, FIG. 1): lowers plasma glucose concentrations
- reduction in plasma glucose from baseline (male db/db mice [1]; dose 01 mg/kg (so in the source) with 30 mg/kg sitagliptin, male db/db mice): 5.6%
- reduction in plasma glucose from baseline (male db/db mice [1]; dose 1 mg/kg with 30 mg/kg sitagliptin, male db/db mice): 15%
- reduction in plasma glucose from baseline (male db/db mice [1]; dose 10 mg/kg with 30 mg/kg sitagliptin, male db/db mice): 42.3%
- elevated blood glucose levels compared to control mice treated with sitagliptin alone or vehicle (male db/db mice [1]; single oral administration in combination with 30 mg/kg sitagliptin, FIG. 1): dose-dependent reduction
- reduction of plasma glucose levels (diabetic db/db mice; 3 hours post-dose, oral 10 mg/kg in combination with 30 mg/kg sitagliptin): 35%

SMILES: CCCCC1(CCCC)CS(=O)(=O)c2ccc(N(C)C)cc2[C@@H](c2ccc(OCCCC[N+]34CCN(CC3)CC4)cc2)[C@H]1O.CS(=O)(=O)[O-] [Compound 100B, 1-[4-[4-[(4R,5R)-3,3-dibutyl-7-(dimethylamino)-2,3,4,5-tetrahydro-4-hydroxy-1,1-dioxido-1-benzothiepin-5-yl]phenoxy]butyl]4-aza-1-azoniabicyclo[2.2.2]octane methane sulfonate salt]
- plasma GLP-1 levels (GLP-1; ASBTI alone, oral 0, 3, 30, 100 mg/kg, FIG. 6, FIG. 7): elevation in GLP-1 levels in a dose-dependent manner
- plasma GLP-1 levels (GLP-1; ASBTI in combination with 30 mg/kg sitagliptin, oral, FIG. 6, FIG. 7): elevation in GLP-1 levels in a dose-dependent manner
- change in body weight (male db/db mice [2]; 24 h after administration, in combination with sitagliptin, FIG. 8): Weight loss
- plasma glucose levels (male db/db mice [2]; ASBTI alone, db/db mice, FIG. 4): lowers plasma glucose levels in dose dependent manner
- reduction in plasma glucose from baseline (male db/db mice [2]; dose 3 mg/kg with 30 mg/kg sitagliptin): 5.6%
- reduction in plasma glucose from baseline (male db/db mice [2]; dose 30 mg/kg with 30 mg/kg sitagliptin): 15%
- reduction in plasma glucose from baseline (male db/db mice [2]; dose 100 mg/kg with 30 mg/kg sitagliptin): 42.3%
- elevated blood glucose levels compared to control mice treated with sitagliptin alone or vehicle (male db/db mice [2]; single oral administration in combination with 30 mg/kg sitagliptin, FIG. 2): dose-dependent reduction
- blood glucose levels compared with exenatide (diabetic db/db mice; 3 hours after dosing, oral, in combination with 30 mg/kg sitagliptin, FIG. 10): reduces blood glucose levels more than a single subcutaneous injection of 0.02 mg/kg exenatide

SMILES: CN(C)C(=N)N=C(N)N [metformin, reference compound]
- plasma GLP-1 levels (GLP-1; metformin in combination with 30 mg/kg sitagliptin, oral, FIG. 5): elevation in GLP-1 levels

SMILES: N[C@@H](CC(=O)N1CCn2c(nnc2C(F)(F)F)C1)Cc1cc(F)c(F)cc1F [sitagliptin, (3R)-3-amino-1-[9-(trifluoromethyl)-1,4,7,8-tetrazabicyclo[4.3.0]nona-6,8-dien-4-yl]-4-(2,4,5-trifluorophenyl)butan-1-one, reference compound]
- reduction in plasma glucose from baseline (male db/db mice [2]; dose 0 mg/kg of ASBTI with 30 mg/kg sitagliptin): 5.5%
- reduction in plasma glucose from baseline (male db/db mice [1]; dose 0 mg/kg of ASBTI with 30 mg/kg sitagliptin, male db/db mice): 5.5%

SMILES: C[C@H](CCC(=O)NCCS(=O)(=O)O)[C@H]1CC[C@H]2[C@@H]3[C@H](O)C[C@@H]4C[C@H](O)CC[C@]4(C)[C@H]3C[C@H](O)[C@]12C [taurocholate, taurocholic acid]
- cumulative food intake compared to gel alone (Sprague Dawley rats [3]): reduced
- circulating GLP-1 levels (obese diabetic humans): increase
- circulating PYY levels (obese diabetic humans): increase
- cumulative food intake (Sprague Dawley rats [4]; 50, 150, 500 mM taurocholate gels, 3 mL per rectum, overnight-fasted rats): dose dependently related to the quantity of taurocholate administered
- ED50 for inhibition of food intake (Sprague Dawley rats [4]; 24 hour intake): 7.2 mmol/rat
- ED50 for inhibition of food intake (Sprague Dawley rats [4]; at 1 hour): 1.6 mmol/rat
- ED50 for inhibition of food intake (Sprague Dawley rats [4]; at 1 hour, 3 mL doses per rectum): 528 mM
- time for which differences in food uptake are maintained (Sprague Dawley rats [4]; rectal taurocholate gels, rats): at least 24 hours
